Experimental data from US20220204509A1, “PYRIMIDO FIVE-MEMBERED HETEROCYCLIC COMPOUND AND USE THEREOF AS MUTANT IDH2 INHIBITOR” (EPITAS BIOSCIENCES (SHANGHAI) CO., LTD., priority 2019, published 2022).
Substitutions are numbered along the chain they refer to.

Assays:
IDH2/R140Q [1] = biological target: T1, IDH2/R140Q (Homo sapiens, UniProt P48735, R140Q); assay: Inhibition of mutant IDH2 activity at the cell level (extracellular 2-HG, U87MG overexpressing IDH2/R140Q); format: cell-based; conditions: U87MG overexpressing IDH2/R140Q; 2-HG in medium after 24 hours of culturing with compound; read-out: IC50
T1 sequence (P48735 40-452 R140Q): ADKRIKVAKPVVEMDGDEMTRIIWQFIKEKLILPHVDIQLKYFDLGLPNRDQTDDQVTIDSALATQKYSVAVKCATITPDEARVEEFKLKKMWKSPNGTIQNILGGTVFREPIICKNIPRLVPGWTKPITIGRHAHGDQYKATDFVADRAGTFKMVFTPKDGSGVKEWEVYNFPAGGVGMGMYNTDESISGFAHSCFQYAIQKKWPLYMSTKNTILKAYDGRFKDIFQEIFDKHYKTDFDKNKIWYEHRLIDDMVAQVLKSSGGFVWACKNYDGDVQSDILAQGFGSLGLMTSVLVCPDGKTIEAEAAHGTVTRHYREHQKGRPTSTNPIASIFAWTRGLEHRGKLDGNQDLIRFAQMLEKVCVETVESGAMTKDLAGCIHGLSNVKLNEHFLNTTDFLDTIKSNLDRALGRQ
Method: 2-hydroxyglutarate dehydrogenase (2HGDH) can reduce NAD+ to NADH in the presence of 2-HG. The latter can be quantitatively detected by diaphorase and its substrate Resazurin.
The glioma cells U87MG overexpressing IDH2/R140Q mutation were cultured in 1% sodium pyruvate high-sugar MEM, 10% FBS, and placed in a CO2 incubator (37° C., 5% CO2, 95% air) for cultivation.
The cells were digested with trypsin and seeded in a 96-well plate at a density of 1×10^4 with a medium of 200 μL and cultured in a 37° C. incubator overnight. The next day, the test compound was added to a final concentration of 0.1% for DMSO. […] The protein and other components in the medium that may interfere with the results were filtered, and the follow-up method was used to detect the content of 2-HG. 50 uL CellTiter-Glo (purchased from Promega) was added to the 96-well plate with the remaining 100 μL of medium to detect cell survival;
Extracellular 2-HG detecting system:
(1) 50 μL reaction system: reaction buffer (50 mM Tris pH7.5, 100 mM NaCl, 20 mM MgCl2, 0.05% BSA), in which the final concentration of NAD+ was 40 μM, the final concentration of 2HGDH was 20 nM, and the test sample was added to 5 μL of medium; the reaction solution was mixed and centrifuged, and the reaction was carried out for 1 hour at 25° C. in the dark;
Preparation of 2-HG standard curve: a 2-HG stock solution was diluted to 20 μM with reaction buffer, and a 2-fold gradient diluting was performed for a total of 6 points. Afterwards, the above-mentioned 2-HG was measured according to the extracellular 2-HG detecting system, and a standard curve was calculated and drawn.
Calculation of extracellular 2-HG content:
The fluorescence value obtained in the extracellular 2-HG detecting system was calculated using the 2-HG standard curve to calculate the content of 2-HG in the medium, and DMSO was used as a negative control to calculate the compound's inhibition against IDH2/R140Q mutation producing 2-HG activity.

IDH2/WT = biological target: T2, IDH2/WT (Homo sapiens, UniProt P48735); assay: Determination of the selectivity of compounds to wild-type IDH2 (IDH2/WT); format: biochemical; conditions: Inhibitory activity on IDH2/WT; pre-incubated at 25° C. for 16 hours
T2 construct: made in house; host or cells: E. coli
T2 sequence (P48735 40-452): T1 sequence (P48735 40-452 R140Q) with Q101R
Method: The compound was incubated with IDH2/WT and NADP, and then the reaction was initiated by adding isocitrate. After a certain time of reaction under linear conditions, lipoamide dehydrogenase and resazurin were added to detect the amount of fluorescent substances. In this experiment, NADP was reduced to NADPH. The latter reduced resazurin to highly fluorescent resorufin under the action of lipoamide dehydrogenase. The production of resorufin was detected to quantify the amount of cofactor NADPH generated after a specific reaction time, so as to calculate the compound's inhibitory effect on IDH2/WT.
Specifically, in a 96-well plate, in a total reaction volume of 50 μL, a mixture of 0.6 nM IDH2/WT, serially diluted inhibitors, and 50 μM NADP in a reaction buffer containing Tris-HCl 20 mM (pH 7.5), 150 mM NaCl, 10 mM MgCl2, 10% Glycerol, 0.03% BSA, and 2.5 mM β-mercaptoethanol, was pre-incubated at 25° C. for 16 hours. Isocitrate was added to 50 μM and the reaction was carried out at 25° C. for 30 minutes. Then 25 μL of a mixed solution (lipoamide dehydrogenase 36 μg/mL, resazurin 30 μM) prepared with the above reaction buffer was added to convert resazurin to resorufin to measure the NADPH produced. After 10 minutes of incubation at 25° C., the fluorescence value was measured by Tecan INFINITE F FLEX under Ex544/Em590. The enzyme activity was measured at 10 concentrations for each compound, and multiple background holes without enzyme and full enzyme activity holes without compound were set up in the reaction. The concentration of dimethyl sulfoxide in the system was less than or equal to 2%. The value of IC50 was obtained by the formula: Y=100/(1+10^((Log IC50−X)*HillSlope)) using XLFit5 software (IDBS Software). In the method, the multi-well plate was purchased from Thermo Fisher Scientific, NADP, α-KG, lipoamide dehydrogenase, and resazurin were purchased from Shenggong Bioengineering Co., Ltd., and IDH2/WT was obtained by purification after E. coli overexpression.

IDH2/R140Q [2] = biological target: T1, IDH2/R140Q; assay: Determination of the inhibitory activity of the compounds on IDH2/R140Q (NADPH reduction, resazurin/lipoamide dehydrogenase detection); format: biochemical; set-up: purchased Abcam ab198153; conditions: IDH2/R140Q inhibitory activity; pre-incubated at 25° C. for 16 hours; read-out: IC50
Method: In this example, the inhibitory activity of a compound on IDH2/R140Q was determined by measuring the reduction of the cofactor NADPH. The compound was incubated with IDH2/R140Q and NADPH, and then the reaction was initiated by adding α-KG. After a certain time of reaction under linear conditions, lipoamide dehydrogenase and the corresponding substrate resazurin were added for detection. Lipoamide dehydrogenase terminated the IDH2/R140Q reaction bγ subtracting the available cofactor NADPH. It oxidized NADPH to NADP, and reduced resazurin to highly fluorescent resorufin. The production of resorufin was detected to quantify the amount of cofactor NADPH remaining after a specific reaction time.
Then 25 μL of a stop mixed solution (lipoamide dehydrogenase 36 μg/mL, resazurin 30 μM) prepared with the above reaction buffer was added to convert resazurin to resorufin to measure the remaining NADPH. After 10 minutes of incubation at 25° C., the fluorescence value was measured by Tecan […] […] The enzyme activity was measured at 10 concentrations for each compound, and multiple background holes without enzyme and full enzyme activity holes without compound were set up in the reaction. The concentration of dimethyl sulfoxide in the system was less than or equal to 2%. […] The multi-well plate in this example was purchased from Thermo Fisher Scientific, NADPH, α-KG, lipoamide dehydrogenase, and resazurin were purchased from Shenggong Bioengineering Co., Ltd., and IDH2/R140Q was purchased from Abcam (ab198153).

SMILES	IC50 (IDH2/R140Q [1]) [nM]	IC50 (IDH2/WT) [nM]	IC50 (IDH2/R140Q [2]) [nM]
Cc1cc2c(Nc3cccc(F)c3)nc(-c3ccccc3)nc2[nH]1 [Compound 31, N-(3-fluorophenyl)-6-methyl-2-phenyl-7H-pyrrolo[2,3-d]pyrimidin-4-amine]	1000 to 10000		1000 to 10000
Cc1cc2c(NC3CC3)nc(-c3cccc(F)c3)nc2[nH]1 [Compound 34, N-cyclopropyl-2-(3-fluorophenyl)-6-methyl-7H-pyrrolo[2,3-d]pyrimidin-4-amine]	100 to 1000		1000 to 10000
Cc1cc2c(NC3CCCCC3)nc(-c3ccccc3)nc2[nH]1 [Compound 37, N-cyclohexyl-6-methyl-2-phenyl-7H-pyrrolo[2,3-d]pyrimidin-4-amine]	1000 to 10000		1000 to 10000
Cc1cc2c(NC3CC3)nc(-c3ccc(F)cc3)nc2[nH]1 [Compound 38, N-cyclopropyl-2-(4-fluorophenyl)-6-methyl-7H-pyrrolo[2,3-d]pyrimidin-4-amine]	1000 to 10000		1000 to 10000
Cc1cc2c(NCC(C)C)nc(-c3ccccc3)nc2[nH]1 [Compound 39, N-isobutyl-6-methyl-2-phenyl-7H-pyrrolo[2,3-d]pyrimidin-4-amine]	100 to 1000		100 to 1000
Cc1cc2c(-c3ccccc3)nc(NC(C)C)nc2[nH]1 [Compound 40, N-isopropyl-6-methyl-4-phenyl-7H-pyrrolo[2,3-d]pyrimidin-2-amine]	> 10000		> 10000
Cc1cc2c(Nc3cccc(Cl)c3)nc(-c3ccccc3)nc2[nH]1 [Compound 41, N-(3-chlorophenyl)-6-methyl-2-phenyl-7H-pyrrolo[2,3-d]pyrimidin-4-amine]	1000 to 10000		1000 to 10000
Cc1cccc(-c2nc(NC3CC3)c3cc(C)[nH]c3n2)c1 [Compound 42, N-cyclopropyl-6-methyl-2-(m-tolyl)-7H-pyrrolo[2,3-d]pyrimidin-4-amine]	100 to 1000		100 to 1000
Cc1cc2c(NC3CC3)nc(-c3ccccc3C)nc2[nH]1 [Compound 43, N-cyclopropyl-6-methyl-2-(o-tolyl)-7H-pyrrolo[2,3-d]pyrimidin-4-amine]	100 to 1000		1000 to 10000
CCOC(=O)Cc1cc2c(Nc3ccccc3)nc(-c3ccccc3)nc2[nH]1 [Compound 44]	1000 to 10000		1000 to 10000
Cc1ccc(-c2nc(NC3CC3)c3cc(C)[nH]c3n2)cc1 [Compound 45, N-cyclopropyl-6-methyl-2-(p-tolyl)-7H-pyrrolo[2,3-d]pyrimidin-4-amine]	1000 to 10000		1000 to 10000
CC(C)Nc1nc(-c2ccccc2)nc2[nH]c(-c3ccccc3)cc12 [Compound 46, N-isopropyl 2,6-diphenyl-7H-pyrrolo[2,3-d]pyrimidin-4-amine]	> 10000		> 10000
Cc1cc2c(NC3CC3)nc(-c3ccc(O)cc3)nc2[nH]1 [Compound 47, 4-(4-(cyclopropylamino)-6-methyl-7H-pyrrolo[2,3-d]pyrimidin-2-yl)phenol]	100 to 1000		100 to 1000
Cc1cc2c(Nc3ccccc3)nc(-c3ccccc3F)nc2[nH]1 [Compound 50, 2-(2-fluorophenyl)-6-methyl-N-phenyl-7H-pyrrolo[2,3-d]pyrimidin-4-amine]	100 to 1000		100 to 1000

Continued, values first:

IC50 (IDH2/R140Q [1]) [nM]	IC50 (IDH2/WT) [nM]	IC50 (IDH2/R140Q [2]) [nM]	SMILES
100 to 1000	> 5000	100 to 1000	Cc1cc2c(NC3CC3)nc(-c3ccccc3)nc2[nH]1 [Compound 23, N-cyclopropyl-6-methyl-2-phenyl-7H-pyrrolo[2,3-d]pyrimidin-4-amine]
100 to 1000	> 5000	100 to 1000	Cc1cc2c(NC(C)C)nc(-c3ccccc3F)nc2[nH]1 [Compound 25, 2-(2-fluorophenyl)-N-isopropyl-6-methyl-7H-pyrrolo[2,3-d]pyrimidin-4-amine]
< 100	> 5000	100 to 1000	Cc1cc2c(NC3CC3)nc(-c3ccccc3F)nc2[nH]1 [Compound 28, N-cyclopropyl-2-(2-fluorophenyl)-6-methyl-7H-pyrrolo[2,3-d]pyrimidin-4-amine]
< 100		< 100	Cc1cc2c(NC3CCC3)nc(-c3ccccc3F)nc2[nH]1 [Compound 48, N-cyclobutyl-2-(2-fluorophenyl)-6-methyl-7H-pyrrolo[2,3-d]pyrimidin-4-amine]
< 100		< 100	CC(C)Nc1nc(-c2ccccc2)nc2[nH]c(C(F)(F)F)cc12 [Compound 49, N-isopropyl-2-phenyl-6-(trifluoromethyl)-7H-pyrrolo[2,3-d]pyrimidin-4-amine]
< 100		< 100	Cc1cc2c(NC3CCCC3)nc(-c3ccccc3F)nc2[nH]1 [Compound 51, N-cyclopentyl-2-(2-fluorophenyl)-6-methyl-7H-pyrrolo[2,3-d]pyrimidin-4-amine]
